Counter-ions that a name gives are not always drawn.

The target of the first assay is T1, epithelial sodium channel (ENaC) (Homo sapiens, UniProt P37088+P51168+P51170).
T1 construct: host or cells: primary human bronchial epithelial cells (HBECs), air-liquid interface culture
T1 sequence (P37088 1-669): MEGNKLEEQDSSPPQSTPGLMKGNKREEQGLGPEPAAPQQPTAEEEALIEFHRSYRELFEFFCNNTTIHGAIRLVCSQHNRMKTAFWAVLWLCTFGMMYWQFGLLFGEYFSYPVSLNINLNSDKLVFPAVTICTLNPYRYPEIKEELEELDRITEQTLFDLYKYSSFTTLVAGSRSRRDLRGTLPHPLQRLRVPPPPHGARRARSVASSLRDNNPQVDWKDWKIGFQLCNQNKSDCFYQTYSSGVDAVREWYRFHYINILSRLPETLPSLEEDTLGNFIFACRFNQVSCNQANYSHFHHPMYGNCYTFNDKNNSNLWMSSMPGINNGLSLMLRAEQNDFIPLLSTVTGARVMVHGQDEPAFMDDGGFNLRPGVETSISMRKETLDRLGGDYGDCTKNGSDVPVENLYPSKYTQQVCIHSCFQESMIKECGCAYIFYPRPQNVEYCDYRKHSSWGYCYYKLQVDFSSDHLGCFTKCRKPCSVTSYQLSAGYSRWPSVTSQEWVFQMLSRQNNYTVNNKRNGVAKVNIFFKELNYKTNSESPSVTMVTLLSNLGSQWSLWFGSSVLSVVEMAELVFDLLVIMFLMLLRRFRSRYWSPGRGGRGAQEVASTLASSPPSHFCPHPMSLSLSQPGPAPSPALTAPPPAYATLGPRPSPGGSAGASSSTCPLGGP
T1 sequence (P51168 1-640): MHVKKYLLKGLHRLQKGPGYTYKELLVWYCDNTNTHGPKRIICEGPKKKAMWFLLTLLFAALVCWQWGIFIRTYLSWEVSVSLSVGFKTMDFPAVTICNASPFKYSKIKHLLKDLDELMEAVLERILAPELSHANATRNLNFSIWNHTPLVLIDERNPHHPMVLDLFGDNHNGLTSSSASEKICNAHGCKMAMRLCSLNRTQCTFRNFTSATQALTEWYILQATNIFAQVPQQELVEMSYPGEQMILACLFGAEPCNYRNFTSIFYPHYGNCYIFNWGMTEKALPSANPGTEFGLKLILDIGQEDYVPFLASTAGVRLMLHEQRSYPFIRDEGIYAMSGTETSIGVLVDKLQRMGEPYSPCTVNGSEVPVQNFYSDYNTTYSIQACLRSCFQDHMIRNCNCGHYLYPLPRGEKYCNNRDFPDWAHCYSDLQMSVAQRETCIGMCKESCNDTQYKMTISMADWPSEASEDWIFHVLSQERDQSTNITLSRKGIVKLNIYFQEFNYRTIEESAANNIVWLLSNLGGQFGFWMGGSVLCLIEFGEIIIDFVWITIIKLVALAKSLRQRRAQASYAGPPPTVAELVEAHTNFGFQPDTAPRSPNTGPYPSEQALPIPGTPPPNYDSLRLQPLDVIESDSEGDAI
T1 sequence (P51170 1-649): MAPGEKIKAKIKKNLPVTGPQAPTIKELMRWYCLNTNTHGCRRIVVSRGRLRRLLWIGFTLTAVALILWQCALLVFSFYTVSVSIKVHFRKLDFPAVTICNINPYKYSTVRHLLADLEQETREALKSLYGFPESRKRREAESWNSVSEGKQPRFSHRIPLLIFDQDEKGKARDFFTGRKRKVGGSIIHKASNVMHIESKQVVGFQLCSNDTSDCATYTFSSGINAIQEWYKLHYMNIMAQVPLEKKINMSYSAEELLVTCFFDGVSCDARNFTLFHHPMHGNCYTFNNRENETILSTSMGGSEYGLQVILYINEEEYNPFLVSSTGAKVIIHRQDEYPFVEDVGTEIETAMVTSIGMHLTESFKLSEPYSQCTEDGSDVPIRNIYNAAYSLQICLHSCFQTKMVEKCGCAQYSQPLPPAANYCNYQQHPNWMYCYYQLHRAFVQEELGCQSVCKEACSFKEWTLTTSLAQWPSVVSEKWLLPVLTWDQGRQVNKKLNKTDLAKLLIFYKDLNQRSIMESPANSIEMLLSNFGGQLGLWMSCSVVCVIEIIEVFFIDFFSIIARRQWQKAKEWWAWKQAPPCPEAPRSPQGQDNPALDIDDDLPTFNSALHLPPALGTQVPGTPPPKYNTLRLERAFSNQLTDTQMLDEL
Nature of the assay: Short circuit current (ISC) measurements in human bronchial epithelial cells, inhibition of amiloride-sensitive ISC. It is filed as cell-based. Conditions: inhibition of the amiloride-sensitive ISC, HBECs at air-liquid interface, compound added to apical chamber. Here is the method:
Compounds of Formula E and their pharmaceutically acceptable salts, hereinafter referred to alternatively as “illustrative ENaC inhibitors of the invention”, are useful as pharmaceuticals. In particular, the compounds have good ENaC blocker activity and may be tested in the following assays.
Human Bronchial Epithelial cells (HBECs) (Cambrex) were cultured under air-liquid interface conditions to provide a well differentiated mucociliary phenotype.
HBECs were cultured using a modification of the method described by Gray and colleagues (Gray et al., 1996). […]
Snapwell inserts were mounted in Vertical Diffusion Chambers (Costar) and were bathed with continuously gassed Ringer solution (5% CO2 in O2; pH 7.4) maintained at 37° C. containing (in mM): 120 NaCl, 25 NaHCO3, 3.3 KH2PO4, 0.8 K2HPO4, 1.2 CaCl2, 1.2 MgCl2, and 10 glucose. […] RT was measured by applying a 1- or 2-mV pulse at 30-s intervals and calculating RT by Ohm's law. Data were recorded using a PowerLab workstation (ADInstruments).
Test compounds were prepared as a 10 mM stock solution in DMSO (95%). […] At the completion of the concentration-response experiment, amiloride (10 μM) was added into the apical chamber to enable the total amiloride-sensitive current to be measured. […]
Results are expressed as the mean % inhibition of the amiloride-sensitive ISC. […]
For the molecule `CCCC1N/C(=N/C(=O)c2nc(Cl)c(N)nc2N)NC1CCCc1ccc(OCC(O)CO)cc1` (stereo in doubt) [Example 29, (E)-3,5-diamino-6-chloro-N-(4-(3-(4-((S)-2,3-dihydroxypropoxy)phenyl)propyl)-5-propylimidazolidin-2-ylidene)pyrazine-2-carboxamide hydrochloride], the IC50 (in general, the concentration needed to halve the response being measured) came to 0.005 µM.
The molecule `Cc1oc(-c2ccccc2)nc1COc1ccc(S(=O)(=O)N2CCC3(CC2)CN/C(=N\C(=O)c2nc(Cl)c(N)nc2N)N3)cc1` [Example 238, 3,5-Diamino-6-chloro-pyrazine-2-carboxylic acid [8-[4-(5-methyl-2-phenyl-oxazol-4-ylmethoxy)-benzenesulfonyl]-1,3,8-triaza-spiro[4.5]dec-(2E)-ylidene]-amide] gave a half-maximal inhibitory concentration (IC50) of 0.0119 µM.

In the next assay the target is T2, ΔF508-CFTR (Homo sapiens, UniProt P13569, DEL508-508).
T2 construct: expressed in transfected cells
T2 sequence (P13569 with tags, fused parts or gaps DEL508-508): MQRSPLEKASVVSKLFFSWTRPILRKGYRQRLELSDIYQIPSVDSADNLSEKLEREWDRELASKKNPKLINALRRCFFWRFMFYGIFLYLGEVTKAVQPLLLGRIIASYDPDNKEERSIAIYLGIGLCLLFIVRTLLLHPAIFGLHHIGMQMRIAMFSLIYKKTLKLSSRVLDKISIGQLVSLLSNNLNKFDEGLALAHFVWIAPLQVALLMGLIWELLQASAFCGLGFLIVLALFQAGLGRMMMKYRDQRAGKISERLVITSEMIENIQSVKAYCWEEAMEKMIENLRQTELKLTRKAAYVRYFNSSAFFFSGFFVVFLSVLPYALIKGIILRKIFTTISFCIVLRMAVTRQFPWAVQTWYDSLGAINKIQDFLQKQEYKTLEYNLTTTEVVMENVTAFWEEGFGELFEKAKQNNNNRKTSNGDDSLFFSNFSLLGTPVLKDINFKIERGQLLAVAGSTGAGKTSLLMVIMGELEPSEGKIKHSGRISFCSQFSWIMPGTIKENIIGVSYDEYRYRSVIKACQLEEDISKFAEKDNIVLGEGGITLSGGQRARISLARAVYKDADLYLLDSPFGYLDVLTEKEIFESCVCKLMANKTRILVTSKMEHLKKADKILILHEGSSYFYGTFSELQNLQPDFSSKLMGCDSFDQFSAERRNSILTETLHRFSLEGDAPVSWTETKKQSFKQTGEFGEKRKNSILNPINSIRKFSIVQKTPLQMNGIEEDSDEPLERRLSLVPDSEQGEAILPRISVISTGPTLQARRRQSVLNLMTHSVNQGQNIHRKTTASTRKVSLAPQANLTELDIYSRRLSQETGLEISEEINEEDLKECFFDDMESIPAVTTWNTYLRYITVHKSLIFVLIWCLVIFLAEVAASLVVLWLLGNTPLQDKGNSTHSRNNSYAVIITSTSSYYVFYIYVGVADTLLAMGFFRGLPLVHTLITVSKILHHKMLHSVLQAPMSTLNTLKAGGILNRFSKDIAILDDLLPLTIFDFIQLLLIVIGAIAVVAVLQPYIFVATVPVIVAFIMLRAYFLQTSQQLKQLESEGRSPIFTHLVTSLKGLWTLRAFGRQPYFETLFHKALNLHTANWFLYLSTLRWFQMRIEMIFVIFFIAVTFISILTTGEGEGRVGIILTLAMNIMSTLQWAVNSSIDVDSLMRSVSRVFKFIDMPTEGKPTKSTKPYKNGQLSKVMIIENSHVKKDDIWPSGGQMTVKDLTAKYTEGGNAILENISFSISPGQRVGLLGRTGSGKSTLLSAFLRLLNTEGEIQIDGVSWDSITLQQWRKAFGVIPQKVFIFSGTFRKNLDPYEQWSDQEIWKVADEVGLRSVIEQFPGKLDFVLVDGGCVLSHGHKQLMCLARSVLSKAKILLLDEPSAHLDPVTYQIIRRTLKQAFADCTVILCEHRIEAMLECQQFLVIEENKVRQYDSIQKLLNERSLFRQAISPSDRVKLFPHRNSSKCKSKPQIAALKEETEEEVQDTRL
Nature of the assay: Membrane potential optical (FRET/VIPR) assay, identification of potentiator compounds, NIH3T3 cells expressing ΔF508-CFTR. It is filed as cell-based. The following applies: Table II.A-4; EC50 of certain embodiments. The source says:
I) Membrane Potential Optical Methods for Assaying ΔF508-CFTR Modulation Properties of Compounds
The optical membrane potential assay utilized voltage-sensitive FRET sensors described by Gonzalez and Tsien (See, Gonzalez, J. E. and R. Y. Tsien (1995) “Voltage sensing by fluorescence resonance energy transfer in single cells” Biophys J 69(4): 1272-80, and Gonzalez, J. E. and R. Y. Tsien (1997) “Improved indicators of cell membrane potential that use fluorescence resonance energy transfer” Chem Biol 4(4): 269-77) in combination with instrumentation for measuring fluorescence changes such as the Voltage/Ion Probe Reader (VIPR) (See, Gonzalez, J. E., K. Oades, et al. (1999) “Cell-based assays and instrumentation for screening ion-channel targets” Drug Discov Today 4(9): 431-439).
These voltage sensitive assays are based on the change in fluorescence resonant energy transfer (FRET) between the membrane-soluble, voltage-sensitive dye, DiSBAC2(3), and a fluorescent phospholipid, CC2-DMPE, which is attached to the outer leaflet of the plasma membrane and acts as a FRET donor. Changes in membrane potential (Vm) cause the negatively charged DiSBAC2(3) to redistribute across the plasma membrane and the amount of energy transfer from CC2-DMPE changes accordingly. The changes in fluorescence emission were monitored using VIPR™ II, which is an integrated liquid handler and fluorescent detector designed to conduct cell-based screens in 96- or 384-well microtiter plates.
To identify potentiators of ΔF508-CFTR, a double-addition HTS assay format was developed. During the first addition, a Cl^−-free medium with or without test compound was added to each well. After 22 sec, a second addition of Cl^−-free medium containing 2-10 μM forskolin was added to activate ΔF508-CFTR. The extracellular Cl^− concentration following both additions was 28 mM, which promoted Cl^− efflux in response to ΔF508-CFTR activation and the resulting membrane depolarization was optically monitored using the FRET-based voltage-sensor dyes. Solutions
Bath Solution #1: (in mM) NaCl 160, KCl 4.5, CaCl2 2, MgCl2 1, HEPES 10, pH 7.4 with NaOH. Chloride-free bath solution: Chloride salts in Bath Solution #1 are substituted with gluconate salts. CC2-DMPE: Prepared as a 10 mM stock solution in DMSO and stored at −20° C. DiSBAC2(3): Prepared as a 10 mM stock in DMSO and stored at −20° C.
NIH3T3 mouse fibroblasts stably expressing ΔF508-CFTR are used for optical measurements of membrane potential. The cells are maintained at 37° C. in 5% CO2 and 90% humidity in Dulbecco's modified Eagle's medium supplemented with 2 mM glutamine, 10% fetal bovine serum, 1× NEAA, β-ME, 1× pen/strep, and 25 mM HEPES in 175 cm^2 culture flasks. […]
As for `CC(C)(C)OC(=O)NCC(C)(C)c1ccc(NC(=O)c2c[nH]c3ccccc3c2=O)cc1` [compound 88, [2-methyl-2-[4-[(4-oxo-1H-quinolin-3-yl)carbonylamino]phenyl]-propyl]aminoformic acid tert-butyl ester], the half-maximal effective concentration (EC50) – broadly, the concentration giving half of the maximal effect – is under 10 µM.
Still for that read-out and setting: with `O=C(Nc1ccccc1Oc1ccccc1)c1c[nH]c2ccccc2c1=O` [compound 413, 4-oxo-N-(2-phenoxyphenyl)-1H-quinoline-3-carboxamide] the figure was 10 to 25 µM; with `Nc1cccc(NC(=O)c2c[nH]c3ccccc3c2=O)c1` [compound 431, N-(3-aminophenyl)-4-oxo-1H-quinoline-3-carboxamide], under 10 µM; with `O=C(Nc1ccc(N2CCOCC2)cc1)c1c[nH]c2ccccc2c1=O` [compound 457, N-(4-morpholinophenyl)-4-oxo-1H-quinoline-3-carboxamide], under 10 µM.

The values above are taken from patent US20140329814A2, “Compositions for Treatment of Cystic Fibrosis and Other Chronic Diseases” (Vertex Pharmaceuticals Incorporated, priority 2010, published 2014).
